{"source": "patent US20050004134A1", "about": "“Thiazole derivative and pharmaceutical use thereof” (priority 2001, published 2005)", "data": [{"smiles": "CC(C)n1nc(-c2sc(NC(=O)c3ccc(CNCCO)cc3)nc2-c2ccccc2)ccc1=O", "note": "[Example 138, 4-{[(2-Hydroxyethyl)amino]methyl}-N-[5-(1-isopropyl-6-oxo-1,6-dihydro-3-pyridazinyl)-4-phenyl-1,3-thiazol-2-yl]benzamide]", "values": [{"measurement": "melting point", "value": "111 to 113", "unit": "°C"}]}, {"smiles": "CC(C)n1nc(-c2sc(NC(=O)c3ccc(Cn4ccnc4)cc3)nc2-c2ccccc2)ccc1=O", "note": "[Example 139, 4-(1H-Imidazol-1-ylmethyl)-N-[5-(1-isopropyl-6-oxo-1,6-dihydro-3-pyridazinyl)-4-phenyl-1,3-thiazol-2-yl]benzamide]", "values": [{"measurement": "melting point", "value": "> 250", "unit": "°C"}]}, {"smiles": "CC(C)n1nc(-c2sc(NC(=O)c3ccc(CNCCN4CCOCC4)cc3)nc2-c2ccccc2)ccc1=O", "note": "[Example 140, N-[5-(1-Isopropyl-6-oxo-1,6-dihydro-3-pyridazinyl)-4-phenyl-1,3-thiazol-2-yl]-4-({[2-(4-morpholinyl)ethyl]amino}methyl)benzamide]", "values": [{"measurement": "melting point", "value": "86 to 88", "unit": "°C"}]}, {"smiles": "CCN(CC)CCNCc1ccc(C(=O)Nc2nc(-c3ccccc3)c(-c3ccc(=O)n(C(C)C)n3)s2)cc1", "note": "[Example 142, 4-({[2-(Diethylamino)ethyl]amino}methyl)-N-[5-(1-isopropyl-6-oxo-1,6-dihydro-3-pyridazinyl)-4-phenyl-1,3-thiazol-2-yl]benzamide]", "values": [{"measurement": "melting point", "value": "158 to 160", "unit": "°C"}]}, {"smiles": "CC(C)n1nc(-c2sc(NC(=O)c3ccc(CNCCCN(C)C)cc3)nc2-c2ccccc2)ccc1=O", "note": "[Example 143, 4-({[3-(Dimethylamino)propyl]amino}methyl)-N-[5-(1-isopropyl-6-oxo-1,6-dihydro-3-pyridazinyl)-4-phenyl-1,3-thiazol-2-yl]benzamide]", "values": [{"measurement": "melting point", "value": "108 to 110", "unit": "°C"}]}, {"smiles": "CC(C)n1nc(-c2sc(NC(=O)c3ccc(CNCCN4CCCCC4)cc3)nc2-c2ccccc2)ccc1=O", "note": "[Example 144, N-[5-(1-Isopropyl-6-oxo-1,6-dihydro-3-pyridazinyl)-4-phenyl-1,3-thiazol-2-yl]-4-({[2-(1-piperidinyl)ethyl]amino}methyl)benzamide]", "values": [{"measurement": "melting point", "value": "134 to 136", "unit": "°C"}]}, {"smiles": "CCOCCNCc1ccc(C(=O)Nc2nc(-c3ccccc3)c(-c3ccc(=O)n(C(C)C)n3)s2)cc1", "note": "[Example 145, 4-{[(2-Ethoxyethyl)amino]methyl}-N-[5-(1-isopropyl-6-oxo-1,6-dihydro-3-pyridazinyl)-4-phenyl-1,3-thiazol-2-yl]benzamide]", "values": [{"measurement": "melting point", "value": "153 to 154", "unit": "°C"}]}, {"smiles": "CC(C)n1nc(-c2sc(NC(=O)c3ccc(CN(C)CCc4ccccn4)cc3)nc2-c2ccccc2)ccc1=O", "note": "[Example 147, N-[5-(1-Isopropyl-6-oxo-1,6-dihydro-3-pyridazinyl)-4-phenyl-1,3-thiazol-2-yl]-4-({methyl[2-(2-pyridinyl)ethyl]amino}methyl)benzamide]", "values": [{"measurement": "melting point", "value": "172 to 174", "unit": "°C"}]}, {"smiles": "CC(=O)N1CCN(CC(=O)Nc2nc(-c3ccccc3)c(-c3ccc(=O)n(C(C)C)n3)s2)CC1", "note": "[Example 150, 2-(4-Acetyl-1-piperazinyl)-N-[5-(1-isopropyl-6-oxo-1,6-dihydro-3-pyridazinyl)-4-phenyl-1,3-thiazol-2-yl]acetamide]", "values": [{"measurement": "melting point", "value": "220 to 222", "unit": "°C"}]}, {"smiles": "CC(C)NCc1ccc(C(=O)Nc2nc(-c3ccccc3)c(-c3ccc(=O)n(C(C)C)n3)s2)cc1", "note": "[Example 152, 4-[(Isopropylamino)methyl]-N-[5-(1-isopropyl-6-oxo-1,6-dihydro-3-pyridazinyl)-4-phenyl-1,3-thiazol-2-yl]benzamide]", "values": [{"measurement": "melting point", "value": "139 to 141", "unit": "°C"}]}, {"smiles": "NC(=O)c1nc(-c2ccccc2)c(-c2ccc(=O)[nH]n2)s1", "note": "[Example 158, 5-(6-oxo-1,6-dihydro-3-pyridazinyl)-4-phenyl-1,3-thiazole-2-carboxamide]", "values": [{"measurement": "melting point", "value": "> 250", "unit": "°C"}]}, {"smiles": "Cn1nc(-c2sc(C(N)=O)nc2-c2ccccc2)ccc1=O", "note": "[Example 159, 5-(1-methyl-6-oxo-1,6-dihydro-3-pyridazinyl)-4-phenyl-1,3-thiazole-2-carboxamide]", "values": [{"measurement": "melting point", "value": "231 to 232", "unit": "°C"}]}, {"smiles": "CCn1nc(-c2sc(C(N)=O)nc2-c2ccccc2)ccc1=O", "note": "[Example 160, 5-(1-Ethyl-6-oxo-1,6-dihydro-3-pyridazinyl)-4-phenyl-1,3-thiazole-2-carboxamide]", "values": [{"measurement": "melting point", "value": "231 to 232.5", "unit": "°C"}]}, {"smiles": "CC(C)n1nc(-c2sc(C(N)=O)nc2-c2ccccc2)ccc1=O", "note": "[Example 161, 5-(1-Isopropyl-6-oxo-1,6-dihydro-3-pyridazinyl)-4-phenyl-1,3-thiazole-2-carboxamide]", "values": [{"measurement": "melting point", "value": "222 to 223", "unit": "°C"}]}, {"smiles": "C=CCn1nc(-c2sc(C(N)=O)nc2-c2ccccc2)ccc1=O", "note": "[Example 162, 5-(1-Allyl-6-oxo-1,6-dihydro-3-pyridazinyl)-4-phenyl-1,3-thiazole-2-carboxamide]", "values": [{"measurement": "melting point", "value": "198 to 199.5", "unit": "°C"}]}, {"smiles": "CC(C)n1nc(-c2sc(C(N)=O)nc2-c2ccccc2F)ccc1=O", "note": "[Example 163, 4-(2-Fluorophenyl)-5-(1-isopropyl-6-oxo-1,6-dihydro-3-pyridazinyl)-1,3-thiazole-2-carboxamide]", "values": [{"measurement": "melting point", "value": "213 to 215", "unit": "°C"}]}, {"smiles": "CC(C)n1nc(-c2sc(C(N)=O)nc2-c2cccc(F)c2)ccc1=O", "note": "[Example 164, 4-(3-Fluorophenyl)-5-(1-isopropyl-6-oxo-1,6-dihydro-3-pyridazinyl)-1,3-thiazole-2-carboxamide]", "values": [{"measurement": "melting point", "value": "248 to 250", "unit": "°C"}]}, {"smiles": "CC(C)n1nc(-c2sc(C(N)=O)nc2-c2ccc(F)cc2)ccc1=O", "note": "[Example 165, 4-(4-Fluorophenyl)-5-(1-isopropyl-6-oxo-1,6-dihydro-3-pyridazinyl)-1,3-thiazole-2-carboxamide]", "values": [{"measurement": "melting point", "value": "226.5 to 227.5", "unit": "°C"}]}, {"smiles": "CC(C)n1nc(-c2sc(C(N)=O)nc2-c2cccc(Cl)c2)ccc1=O", "note": "[Example 166, 4-(3-Chlorophenyl)-5-(1-isopropyl-6-oxo-1,6-dihydro-3-pyridazinyl)-1,3-thiazole-2-carboxamide]", "values": [{"measurement": "melting point", "value": "232 to 234.5", "unit": "°C"}]}, {"smiles": "CCCn1nc(-c2sc(C(N)=O)nc2-c2ccccc2)ccc1=O", "note": "[Example 167, 5-(6-oxo-1-propyl-1,6-dihydro-3-pyridazinyl)-4-phenyl-1,3-thiazole-2-carboxamide]", "values": [{"measurement": "melting point", "value": "201 to 202", "unit": "°C"}]}, {"smiles": "COCCn1nc(-c2sc(C(N)=O)nc2-c2ccccc2)ccc1=O", "note": "[Example 168, 5-[1-(2-Methoxyethyl)-6-oxo-1,6-dihydro-3-pyridazinyl]-4-phenyl-1,3-thiazole-2-carboxamide]", "values": [{"measurement": "melting point", "value": "198 to 199.5", "unit": "°C"}]}, {"smiles": "CCCNC(=O)c1nc(-c2ccccc2)c(-c2ccc(=O)[nH]n2)s1", "note": "[Example 169, 5-(6-oxo-1,6-dihydro-3-pyridazinyl)-4-phenyl-N-propyl-1,3-thiazole-2-carboxamide]", "values": [{"measurement": "melting point", "value": "232 to 233", "unit": "°C"}]}, {"smiles": "CCCNC(=O)c1nc(-c2ccccc2)c(-c2ccc(=O)n(C)n2)s1", "note": "[Example 170, 5-(1-methyl-6-oxo-1,6-dihydro-3-pyridazinyl)-4-phenyl-N-propyl-1,3-thiazole-2-carboxamide]", "values": [{"measurement": "melting point", "value": "108 to 109", "unit": "°C"}]}, {"smiles": "CCCNC(=O)c1nc(-c2ccccc2)c(-c2ccc(=O)n(CC)n2)s1", "note": "[Example 171, 5-(1-ethyl-6-oxo-1,6-dihydro-3-pyridazinyl)-4-phenyl-N-propyl-1,3-thiazole-2-carboxamide]", "values": [{"measurement": "melting point", "value": "106.5 to 107.5", "unit": "°C"}]}, {"smiles": "CCCNC(=O)c1nc(-c2ccccc2)c(-c2ccc(=O)n(CCC)n2)s1", "note": "[Example 172, 5-(6-oxo-1-propyl-1,6-dihydro-3-pyridazinyl)-4-phenyl-N-propyl-1,3-thiazole-2-carboxamide]", "values": [{"measurement": "melting point", "value": "121 to 122", "unit": "°C"}]}, {"smiles": "CCCNC(=O)c1nc(-c2ccccc2)c(-c2ccc(=O)n(C(C)C)n2)s1", "note": "[Example 173, 5-(1-isopropyl-6-oxo-1,6-dihydro-3-pyridazinyl)-4-phenyl-N-propyl-1,3-thiazole-2-carboxamide]", "values": [{"measurement": "melting point", "value": "141 to 142", "unit": "°C"}]}, {"smiles": "CCCNC(=O)c1nc(-c2ccccc2)c(-c2ccc(=O)n(Cc3ccccc3)n2)s1", "note": "[Example 174, 5-(1-benzyl-6-oxo-1,6-dihydro-3-pyridazinyl)-4-phenyl-N-propyl-1,3-thiazole-2-carboxamide]", "values": [{"measurement": "melting point", "value": "120 to 121", "unit": "°C"}]}, {"smiles": "CCCNC(=O)c1nc(-c2ccc(F)cc2)c(-c2ccc(=O)n(C(C)C)n2)s1", "note": "[Example 175, 4-(4-fluorophenyl)-5-(1-isopropyl-6-oxo-1,6-dihydro-3-pyridazinyl)-N-propyl-1,3-thiazole-2-carboxamide]", "values": [{"measurement": "melting point", "value": "146.5 to 147.5", "unit": "°C"}]}, {"smiles": "CC(C)NC(=O)c1nc(-c2ccccc2)c(-c2ccc(=O)[nH]n2)s1", "note": "[Example 176, N-isopropyl-5-(6-oxo-1,6-dihydro-3-pyridazinyl)-4-phenyl-1,3-thiazole-2-carboxamide]", "values": [{"measurement": "melting point", "value": "> 250", "unit": "°C"}]}, {"smiles": "CC(C)NC(=O)c1nc(-c2ccccc2)c(-c2ccc(=O)n(C)n2)s1", "note": "[Example 177, N-isopropyl-5-(1-methyl-6-oxo-1,6-dihydro-3-pyridazinyl)-4-phenyl-1,3-thiazole-2-carboxamide]", "values": [{"measurement": "melting point", "value": "154 to 154.5", "unit": "°C"}]}, {"smiles": "CCn1nc(-c2sc(C(=O)NC(C)C)nc2-c2ccccc2)ccc1=O", "note": "[Example 178, 5-(1-ethyl-6-oxo-1,6-dihydro-3-pyridazinyl)-N-isopropyl-4-phenyl-1,3-thiazole-2-carboxamide]", "values": [{"measurement": "melting point", "value": "152.5 to 153", "unit": "°C"}]}, {"smiles": "CCCn1nc(-c2sc(C(=O)NC(C)C)nc2-c2ccccc2)ccc1=O", "note": "[Example 179, N-isopropyl-5-(6-oxo-1-propyl-1,6-dihydro-3-pyridazinyl)-4-phenyl-1,3-thiazole-2-carboxamide]", "values": [{"measurement": "melting point", "value": "146.5 to 147.5", "unit": "°C"}]}, {"smiles": "CC(C)NC(=O)c1nc(-c2ccccc2)c(-c2ccc(=O)n(C(C)C)n2)s1", "note": "[Example 180, N-isopropyl-5-(1-isopropyl-6-oxo-1,6-dihydro-3-pyridazinyl)-4-phenyl-1,3-thiazole-2-carboxamide]", "values": [{"measurement": "melting point", "value": "131 to 132.5", "unit": "°C"}]}, {"smiles": "C=CCn1nc(-c2sc(C(=O)NC(C)C)nc2-c2ccccc2)ccc1=O", "note": "[Example 181, 5-(1-allyl-6-oxo-1,6-dihydro-3-pyridazinyl)-N-isopropyl-4-phenyl-1,3-thiazole-2-carboxamide]", "values": [{"measurement": "melting point", "value": "166 to 167", "unit": "°C"}]}, {"smiles": "CC(C)NC(=O)c1nc(-c2ccccc2)c(-c2ccc(=O)n(Cc3ccccc3)n2)s1", "note": "[Example 182, 5-(1-benzyl-6-oxo-1,6-dihydro-3-pyridazinyl)-N-isopropyl-4-phenyl-1,3-thiazole-2-carboxamide]", "values": [{"measurement": "melting point", "value": "163.5 to 165", "unit": "°C"}]}, {"smiles": "COCCn1nc(-c2sc(C(=O)NC(C)C)nc2-c2ccccc2)ccc1=O", "note": "[Example 183, N-isopropyl-5-[1-(2-methoxyethyl)-6-oxo-1,6-dihydro-3-pyridazinyl]-4-phenyl-1,3-thiazole-2-carboxamide]", "values": [{"measurement": "melting point", "value": "172 to 172.5", "unit": "°C"}]}]}
